In a melting point compilation (Tetko et al.; mined from patent text by program, amines drawn as free bases though some values may be those of a salt):

melting point	Compound
137 to 139 °C	CCOC(=O)C1(c2ccccc2)CCC=CC1Cl (stereo unspecified)
112 °C	O=C1C=C(c2ccc(Cl)c(Cl)c2)C(=O)O1
135 to 136 °C	CCCCCc1c(CO)nc(C(C)C)c(CO)c1-c1ccc(F)cc1
117 °C	CC(C)(C)OC(=O)N1C(=O)CCC1c1ccc(F)cc1 (stereo unspecified)
109 to 111 °C	OCC1CCCn2c(cc3ccccc32)C1 (stereo unspecified)
154 °C	O=C(c1cc(Cl)ccc1O)c1cc(Cl)ccc1O
72 to 74 °C	C=CC[C@H]1Cc2c(OCOC)cccc2C(O)O1 (stereo partly specified)
114 to 115 °C	CCNC(=S)n1nc(Oc2c(F)cc(C(F)(F)F)cc2Cl)cc1C
179 to 180 °C	COCCNS(=O)(=O)c1cccc(Nc2nccc(-c3sc(N)nc3C)n2)c1
178 °C	CC1(C)Oc2ccc(C#N)cc2C(n2ccccc2=O)C1=O (stereo unspecified)
279 to 283 °C	N#Cc1ccc2ccc(C(=O)O)cc2c1
208 to 209 °C	COc1ccc2cnc(Nc3ccc(F)c(C)c3)nc2c1C1CCCC1
79 to 82 °C	CN(NC(=O)OCc1ccccc1)C(=O)NCC(F)F
245 to 246 °C	Cc1cc(-c2ccc(Cl)cc2)sc1C(=O)O
140 to 142 °C	CCn1c(C)nc2cc(S(C)(=O)=O)ccc21
199 °C	CC(C)(C)n1cnc(-c2ccc(F)cc2)c1-c1ccncc1
35 to 37 °C	CCOC(=O)C(C)Oc1ncn(-c2cccc(F)c2)n1 (stereo unspecified)
182 to 185 °C	CC1(C)OC(=O)C(CO)(c2ccc(Cl)cc2Cl)O1 (stereo unspecified)
60 to 67 °C	CN(C)c1cccc2c(S(=O)(=O)NCC(=O)N3CCC[C@H]3C(=O)OC(C)(C)C)cccc12
> 250 °C	COc1cc(C#N)ccc1C(=O)Nc1cc(Cl)c(Cl)cc1N
186 °C	COc1nc2ncnn2c(N2CCC(C)CC2)c1-c1ccc(F)cc1Cl
240 °C	CCOC(=O)c1cnc2cccc(O)c2c1

melting point	Compound
217 to 218 °C	CS(=O)(=O)Nc1cc2occc(=O)c2cc1Oc1ccccc1
176 to 177 °C	Cc1ccc(OC(=O)c2cc3cc(S(=O)(=O)N(C)C)c(Cl)c(Cl)c3o2)cc1
100 °C	CCC1(C)CC(S(=O)(=O)C(Cl)(Cl)c2cccc(F)c2)=NO1 (stereo unspecified)
102 to 104 °C	Cc1c(Cl)nc2sc(SCc3ccccc3)nn2c1=O
149 to 150 °C	CNC(=O)N(O)C(C)c1cc2ccccc2s1 (stereo unspecified)
65 °C	Cc1ccc(OCC(=O)c2ccccc2)cc1
178 to 180 °C	CCn1cc(Cl)nc(S(=O)(=O)CC(=O)Nc2ccccc2)c1=O
199 to 200 °C	O=C(O)C1Cc2c(c(Cl)cc3c(-c4ccccc4F)noc23)O1 (stereo unspecified)
93.5 to 94 °C	CCc1cc([N+](=O)[O-])cc(C=O)c1O
175 °C	CC#CCOc1ccc(S(=O)(=O)C(C(=O)NO)c2ccc(-c3cccs3)cc2)cc1 (stereo unspecified)
134 to 137 °C	COc1cc(C(O)CN2CCC(Cc3ccccc3)CC2)on1 (stereo unspecified)
125 to 128 °C	COc1nc(C)cnc1N(C(=O)OCC(C)C)S(=O)(=O)c1cccnc1-c1ccc(CBr)cc1
167 °C	CSc1nc2cncnc2n1Cc1ccc(F)cc1
122 to 123 °C	CC(=O)OCc1c(C)n(C[C@H]2C[C@@H]2C)c2c(OCc3ccc(F)cc3)nncc12
144 to 145 °C	COc1cc(C=C(C)C(=O)O)ccc1O
144 to 146 °C	C[C@@H]1Oc2ccccc2C(=O)[C@H]1n1ccnc1 (relative stereo)
180 to 181 °C	Cc1ncccc1NC(=NC#N)NC(NC(=O)Cc1ccc(Cl)cc1)C(C)(C)C (stereo unspecified)
150 °C	COC(=O)c1cc(-c2ccccc2)sc1Nc1ccc(F)cc1[N+](=O)[O-]
207 °C	COCCN1CCN(c2ccc(NC(=O)c3cnn(-c4ccc(Cl)cc4)c3C)cc2C#N)CC1
118 °C	N#CCc1ccc2onc(-c3ccc(Cl)cc3)c2c1
144 to 148 °C	COc1ccccc1N1CCN(CCNc2c(OC)cnn(C)c2=O)CC1

Continued, molecule first:

Compound	melting point
COc1cc(OC)c([N+](=O)[O-])c(OC)c1N	111 °C
Cc1ccc(Oc2nsnc(Cl)c2=O)cn1	155 to 156 °C
CCCc1ccc(NC(=O)c2ccccc2C(c2ccc(O)cc2)c2ccc(O)cc2)cc1	218 to 219 °C
CNC(=O)Cn1nc(-c2ccccc2)c(-c2ccccc2)c(C#N)c1=O	292 to 294 °C
O=C(OCC1CC1)c1ncn2c1[C@@H]1CCCN1C(=O)c1c-2ccc(Cl)c1Cl	185 to 186 °C
CN1Cc2c(C(N)=O)ncn2-c2ccc(Cl)cc2C1=O	275 to 277 °C
CCCc1c(C(=O)CC)c2ccc(C(N)=O)cc2n1Cc1ccccc1Cl	151 to 152 °C
O=C1c2ccc(N3CCCCC3)cc2C(=O)c2cc3ccccc3cc21	230 to 233 °C
Nc1cc(Br)ccc1-c1ccccc1F	40 to 42 °C
N#Cc1cc2nc(O)c(O)nc2cc1C(F)(F)F	> 300 °C
FC(F)(F)Sc1ccc(/C=C/c2nc(COc3ccc(-c4nc(Cn5ccnc5)co4)cc3)co2)cc1	144 to 145 °C
Cc1ccc([N+](=O)[O-])c2c1C(N1C(=O)c3ccccc3C1=O)CCC2=O (stereo unspecified)	220 to 230 °C
C=CN(Cc1ccccc1)C(=O)C(F)(F)C(F)(F)C(F)(F)C(F)(F)C(F)(F)C(F)F	53 to 57 °C
CC(c1ccc(N(C)C)cc1)c1ccc(N(C)C)cc1	68 °C
Cc1cccc(N=C2NCCN2)c1	115 °C
CNc1c(OC)cc(C(=O)OC)cc1OC	49 to 51 °C
COc1cc(OC)c([N+](=O)[O-])c(C(=O)NC2CCN(C(c3ccccc3)c3ccccc3)CC2)c1	148 to 150 °C
N#Cc1ccc(C(O)C23CCCN2C(=O)N(c2cc(Cl)cc(Cl)c2)C3=O)cc1 (stereo unspecified)	184 °C
CC(=O)c1cc2c(c(C=O)c1O)CCCC2	77.5 to 78.5 °C
CCNC(=S)NCc1cccc2c1C(=O)N(C1CCC(=O)NC1=O)C2=O (stereo unspecified)	154 to 156 °C

Compound	melting point
CC1(C)CC(Nc2nc(NC3CC(C)(C)NC(C)(C)C3)nc(N(C3CC(C)(C)NC(C)(C)C3)C3CC(C)(C)NC(C)(C)C3)n2)CC(C)(C)N1	235 to 243 °C
C/C(=C\C=C\C#N)c1ccc(OCc2nc(-c3ccccc3)oc2C)cc1	134 to 136 °C
NC(=O)NCc1cc2cc(CN3CCOCC3)cc3c(=O)c(C(=O)NCc4ccc(Cl)cc4)cn1c23	250 to 252 °C
CCc1noc(-c2cc3c(cn2)[nH]c2cccc(Oc4ncccn4)c23)n1	254 to 256 °C
O=C(O)CCCCc1nc(NCc2ccc3c(c2)OCO3)c2cc(Cl)sc2n1	130 °C
CN(C)Cc1ccc(CSCCNc2ncc(Cc3ccn(Cc4ccccc4)c(=O)c3)c(=O)[nH]2)o1	95.5 to 98 °C
O=C(NCCCn1cncn1)c1ccc(I)cc1	132 to 134 °C
CCCCCCCN(C[C@H]1CCCC[C@H]1CN(CCCCCCC)C(=O)Nc1ccc(N(C)C)cc1)C(=O)Nc1ccc(N(C)C)cc1	135 to 138 °C
CN(C)Cc1ccc2cc(C(=O)Nc3ccc(-c4ccc(Cl)cc4)cc3)ccc2c1	240 to 242 °C
COc1ccc(C(=O)Nc2ccccc2)c(C(=O)Cc2ccccn2)c1	145 to 148 °C
Cc1ccc2[nH]c(-c3ccccc3)cc(=O)c2c1	290 to 292 °C
O=C1CC(NCc2ccccc2)C(=O)N1Cc1ccccc1 (stereo unspecified)	60 to 63 °C
CCOc1nc2ccccc2nc1N(CC)C(=O)N1CCN(c2cc(C)cc(C)c2)CC1	142 to 144 °C
CCCCCC(C)N(C=C1C(=O)OC(C)(CNc2cc(C(C)(C)C)c(O)c(C(C)(C)C)c2)OC1=O)Cc1ccc(CC(C)(C)C)s1 (stereo unspecified)	184 to 185 °C
CCOC(=O)c1[nH]ccc1N	197 to 200 °C
COCCN(C)Cc1ccc(NC(=O)C#Cc2ccc(-c3ccc(Cl)cc3)cc2)cc1	130 to 133 °C
CCC(=CC(CNC(=O)c1cccnc1SC)=NO)C(C)[N+](=O)[O-] (stereo unspecified)	161 to 163 °C
N#Cc1cc(N)ccc1N1CCC(N2CCOCC2)CC1	84 to 86 °C
O=C(Nc1ccc(Oc2ccccc2)cc1)N1CCN(c2ncnc3ccccc23)CC1	74 to 75 °C
COc1ccc(F)c(CC2CCN([C@H]3CC[C@H](c4ccc5c(c4)OCO5)CC3)CC2)c1	89 to 91 °C

Compound	melting point
CC(C)OC(=O)c1cc(N)c(F)c(F)n1	167 to 168 °C
COc1ccc(S(=O)(=O)N2CCc3cccc(-c4ccc(C=O)cc4)c32)cc1	152 to 153 °C
Cn1cncc1C(N)(c1ccc(Cl)cc1)c1ccc2c(c1)c(-c1nc(-c3ccccc3)cs1)cc(=O)n2C (stereo unspecified)	237 °C
O=C1CCOc2c1ccc(O)c2CCCc1ccccc1	110 to 112 °C
Cc1cc2c(cc1C)C(=O)C(CC(=O)O)CC2 (stereo unspecified)	193 to 194 °C
COc1ccc(-c2ccc(O)c(C3(C)CCCCC3)c2)cc1CC1SC(N2CCCC2)=NC1=O (stereo unspecified)	121 to 122 °C
COc1ccc2c(c1)C1=C(CC2)NC(=O)CC1	227 to 228 °C
CCC(CC)C(O)C(O)C(CC1CCCCC1)NC(=O)C(Cc1c[nH]cn1)NC(=O)C(CC(=O)C(C)(C)C)Cc1ccccc1 (stereo unspecified)	160 °C
CCCCc1ncc(/C=C(\Cc2cccs2)C(=O)O)n1Cc1ccc(C=CC(=O)O)cc1	199 to 203 °C
O=C(NCc1noc(-c2c3ccccc3nn2CCn2ccnc2)n1)c1ccccc1	167 to 168 °C
O=C1c2ccccc2C(=O)N1CCCCN1CCN(C(c2ccccc2)c2ccccc2)CC1	125 to 129 °C
Cc1ccc2oc(C=Cc3ccc(C(=O)O)cc3)cc(=O)c2c1	308 to 312 °C
O=C(O)[C@@H]1CN(C(=O)OCc2ccccc2)CCN1C(=O)N1c2ccccc2CCc2ccccc21	185 °C
COc1cc(CCCCN(C)Cc2ccc(OC)c(OC)c2)ccc1NC(=O)c1cccc2c(=O)c3cccc(OC)c3[nH]c12	114 to 115 °C
Clc1cccc(-c2n[nH]cc2-c2ccnc(NCCc3ccccc3)c2)c1	185 to 186 °C
O=C(O)C(CC(=O)N1CC2CC=CCC2C1)Cc1ccccc1 (stereo unspecified)	128 to 132 °C
COc1ccc([N+](=O)[O-])cc1N1CCNCC1	84 to 87 °C
CC(=O)NC(COC1CCN(c2nc3ccc(OCC4CC4)cc3o2)CC1)C(F)(F)F (stereo unspecified)	126 to 127 °C
